Results published in patent US20230095509A1, “NON-FIBRILLAR HEMOGLOBIN S OLIGOMERS AND METHODS TO IDENTIFY MODULATORS OF HEMOGLOBIN S POLYMERIZATION” (REGENTS OF THE UNIVERSITY OF MINNESOTA, priority 2021, published 2023).
Entries after “also recorded” stand apart in the source; their conditions may differ.

Columns and labels:
[1] = test system: RBC from healthy donors (genotype HbAA); assay: Microfluidic measurement of RBC oxygen saturation (Quantitative Absorption Cytometry, P50); type: cell-based, human; settings: for P50 (hemoglobin oxygen binding affinity) relative to control: 500 μM, RBC from 4 healthy donors, 1 hr at 37C at 25% hematocrit, diluted to 1% hematocrit with drug, FIG. 10
Experimental: Measurement of hemoglobin oxygen saturation in RBC from 4 healthy donors (genotype HbAA). RBC at 25% hematocrit were incubated with 500 uM voxelotor, chlormezanone, gabazine, or DMSO (control) for 1 hr at 37C and then diluted to 1% hematocrit with drug.
Microfluidic Measurement of RBC Oxygen Saturation: The Quantitative Absorption Cytometry assay described previously (Di Caprio et al., 2019, Proc Natl Acad Sci USA 116, 25236-25242; Di Caprio et al., 2015, Proc Natl Acad Sci USA 112, 9984-9989), takes images of single red blood cells (RBC) under alternating 410 nm and 430 nm LEDs. Due to the unique absorption spectra of oxy and deoxy hemoglobin the transmitted light at 410 nm and 430 nm permits measurement of the single cell saturation can be calculated. The cells are perfused through a microfluidic device with oxygen control that permits measurement of the oxygen saturation of a population of RBC under defined oxygen tension. The polydimethysiloxane (PDMS) microfluidic device for this assay comprises two layers- a gas layer and a blood layer bonded to a glass coverslip. These two layers are separated by 100 μm of PDMS. The gas layer allows for precise control of oxygen tension that will diffuse to the blood layer; the blood layer contains a 30 mm diffusion section to allow red blood cells to reach steady state saturation and a 5 mm observation section to imaging RBCs.
To prepare RBC for measurement, blood samples were washed and resuspended in 10% w/v BSA in PBS, and 0.5 μL of 100 mM therapeutic in DMSO was added to the sample. The sample was then incubated on a shaker plate at 37° C. for one hour. After incubation samples were washed again and 10 μL packed red blood cells was added to a solution of 288 μL 25% Human Serum Albumin (HAS) solution (Gemini Bio).
In this assay, we prepared samples identically to the preparation for blood flow by incubating with drug at 25% hematocrit, and then we diluted the samples to 1% hematocrit with […] drug in the dilution buffer.

[2] = biological target: T1, deoxyHbS oligomers (HbS-rhodamine red / HbS-Cy5) (Homo sapiens, UniProt P68871+P69905, E7V); assay: Fluorescence lifetime (FLT) FRET assay of deoxyHbS oligomerization (LOPAC screen and dose response); type: biochemical; settings: for FRET efficiency of HbS under deoxy conditions: known polymerization inhibitors as controls, FIG. 1D; for FRET efficiency in dose response: 0.1 to 1000 μM, 2 hours at room temperature, then degassed, FIG. 4B
T1 construct: purchased Sigma
Experimental: Development of HTS platform for identification of small molecules that inhibit in vitro HbS nucleation: Sickle hemoglobin (HbS) (sigma) was labeled with either fluorescent donor (rhodamine red) or acceptor (Cy5) dyes (Thermo fisher scientific) via a cysteine thiol group. For labeling, lyophilized HbS (10 mg/ml) was dissolved in PBS (Sigma) and then centrifuged at 13000 g for five minutes at 4° C. to remove the debris. After centrifugation protein sample was incubated with TCEP (0.5-1 mM) for 20 minutes at room temperature to reduce the cysteine side-chain. This protein mixture was incubated with 1.5 mM dye (dissolved in DMSO or water) for two hours in the dark at room temperature or overnight at 4° C. Unreacted free dye was removed by dialysis against PBS. The degree of labeling was calculated by comparing the absorption of the fluorophore conjugated hemoglobin at 280 nm to the absorbance of the dye at its maximum wavelength. The dye concentration was measured by absorbance, using extinction coefficients of 250,000 M −1 cm -1 for Cy5 conjugates and 88000 M −1 cm -1 for Rhodamine Red conjugates.
High-Throughput Screening of LOPAC Library to Identify Compounds That Inhibit HbS Oligomerization Under Deoxy Condition: The LOPAC compounds (Thermo Fisher Scientific) were received in 96-well plates. Assay plates were prepared by transferring 5 nL of the 10 mM compound stocks or DMSO from the source plates to 1536-well black polypropylene plates (Greiner), using an Echo 550 acoustic dispenser (Labcyte). During screening, donor sample (HbS/Rhodamine Red) was mixed with acceptor (HbS/Cy5) at 1:5 ratios. Then protein samples were dispensed (5 μL, 25 μM) by a Multidrop Combi Reagent Dispenser (Thermo Fisher Scientific) into the 1536-well assay plates containing the compounds and incubated at room temperature for two hours. After incubation, protein samples were degassed for 10-15 minutes using vacuum argon degassing method. Lifetime measurements were taken by the fluorescence lifetime plate reader (Fluorescence Innovations, Inc).
Fluorescence Data Acquisition: We tested the functionality of the HbS FRET pair by measuring lifetimes of oxy-and deoxy HbA and HbS using a fluorescence lifetime plate reader (FIG. 3A). Lifetimes are reciprocally related to FRET, so a decrease in lifetime corresponds to an increase in FRET. Donor fluorescence was excited with a 532 nm laser (Teem Photonics SNG-20F-100, Meylan, France), delivering pulses of -0.3 μJ energy at a 20 kHz repetition rate, and emission was filtered with 546 nm long pass and 586/20 nm band pass filters. This filter was selected to exclude acceptor fluorescence, as only the lifetime of the donor fluorescent protein is required to calculate FRET (Equation (1)). The photomultiplier tube (PMT) voltage was adjusted so that the peak signals of the instrument response function (IRF) and FRET biosensor were similar.
High-Throughput Screening Data Analysis: Time resolve-fluorescence waveforms for each well were fitted with single-exponential decays using least-squares minimization global analysis software (Petersen et al., F2014, Rev Sci Instrum 85, 113101). FRET efficiency (E) was determined as the fractional decrease of donor lifetime (T_D ), due to the presence of acceptor fluorophore (T_DA) using equation 1: […]
These drug compounds were dissolved in DMSO to make 20 mM stock solution. Hits were screened at seven different concentrations. Protein samples were dispensed into the 96-well assay plates and incubated with hit compounds at room temperature for two hours. After incubation, protein samples were degassed for 10 minutes using vacuum argon degassing method. Lifetime measurements were taken by the fluorescence lifetime plate reader (Fluorescence Innovations, Inc).

CC(C)n1nccc1-c1ncccc1COc1cccc(O)c1C=O [voxelotor]
P50 (hemoglobin oxygen binding affinity) relative to control [1]: significantly (p<0.05) decreases P50; also recorded: large shift in P50; also recorded: significantly decreased the P50
modification of hemoglobin ([1]; samples diluted to 1% hematocrit with drug in the dilution buffer): ~100%
FRET efficiency of HbS under deoxy conditions [2]: decreased the FRET efficiency
FRET efficiency of HbS under deoxy conditions ([2]; listed as Voxelotor): reduced FRET efficiency

CN1C(=O)CCS(=O)(=O)C1c1ccc(Cl)cc1 (stereo not shown) [chlormezanone]
P50 (hemoglobin oxygen binding affinity) relative to control [1]: neither chlormezanone nor gabazine significantly shifted P50; also recorded: no significant (p>0.05) change in P50
IC50 [2]: > 100 µM
FRET efficiency in dose response [2]: decreased FRET efficiency in a dose-dependent manner
effect on FRET efficiency in the LOPAC pilot screen ([2]; LOPAC screen, mean of three independent screens, FIG. 4A): by far the largest effect

COc1ccc(-c2ccc(=N)n(CCCC(=O)O)n2)cc1 [gabazine]
P50 (hemoglobin oxygen binding affinity) relative to control [1]: neither chlormezanone nor gabazine significantly shifted P50; also recorded: no significant (p>0.05) change in P50
FRET efficiency in dose response [2]: decreased FRET efficiency in a dose-dependent manner
